{"source": "paper PMC5007978", "about": "“A chemical with proven clinical safety rescues Down-syndrome-related phenotypes in through DYRK1A inhibition” (Disease Models & Mechanisms, 2016)", "key": {"[1]": {"system": "calcineurin-NFAT signaling", "experiment": "NFAT-RE promoter luciferase reporter assay (NRE-Luc) in 293T cells", "assay_type": "cell-based", "conditions": "IM and PMA (10 nM), 1, 3 and 10 μM", "protocol": "Fig. 5. […] Firefly luciferase activities were measured using One-Glo reagents. Luciferase activity in the sample with reporter plasmid alone was set to 1, and the relative luciferase activities were calculated. Means±s.d. were determined from two independent experiments.\nTreatment with IM and phorbol 12-myristate 13-acetate (PMA) induced a dramatic increase in luciferase activity (∼20 fold) as a result of the nuclear translocation of NFATc1 and the subsequent transcriptional activation (Fig. 5B). In this situation, the overexpression of DYRK1A suppressed the stimulatory effect of IM and PMA by 75%, resulting in a 4.5-fold increase in luciferase activity compared with that of the control (Fig. 5B).\nThe firefly luciferase reporter assay was performed using a One-Glo Assay System (Promega) according to the manufacturer's instructions. The transcriptional activity of NFATc1 in 293T cells was measured with a reporter vector (pGL4.30 luc2P/NFAT-RE/Hygro) (Promega) that expresses the firefly luciferase gene under the control of an NFAT-RE promoter. 293T cells were transfected with the DYRK1A-expressing plasmid and reporter plasmid. On the next day, cells were treated with IM (2.5 μM) and phorbol-12-myristate-13-acetate (10 nM) along with the indicated amounts of inhibitors. Cells were further incubated for 8 h and then cell lysates were harvested to measure luciferase activity."}, "[2]": {"system": "mnb-overexpressing Drosophila", "experiment": "Eye phenotype in flies overexpressing human Tau with or without mnb (GMR-Gal4)", "assay_type": "in vivo, Drosophila melanogaster", "conditions": "feeding with 100 nM, GMR>Tau and GMR>mnb+Tau", "text": "The expression of human Tau in Drosophila retinal tissue (GMR>Tau) produced a small rough eye phenotype (GMR>Tau in Fig. 6A and B), as described previously ([Jackson et al., 2002]). […] Pan-neuronal mnb overexpression (elav::synGFP>mnb) caused severe neurogenic defects in both the central and peripheral nervous system during embryogenesis [elav::synGFP>mnb (DMSO) in Fig. 6C]. […] Moreover, the viability of adult flies with the neuronal overexpression of mnb was examined. Pan-neuronal overexpression of mnb caused high rates of mortality in adult flies (∼70%, Fig. 6D).\nFig. 6. CX-4945 rescues neurological and phenotypic defects in an mnb-overexpressing Drosophila model. […] (B) The retinal surface areas were measured on multiple samples (n>10) from each genotype, and average eye sizes were presented as normalized percentages of the DMSO-treated GMR-Gal4 control. […]\nDrosophila melanogaster were cultured at 25°C on standard cornmeal medium. […] For defining optimal concentration of chemical inhibitors, 50 embryos of each genotype were raised on drug-containing food (0, 1 nM, 10 nM, 100 nM, 1 µM, 10 µM and 25 µM in 0.05% DMSO) and allowed to develop to adulthood (viability assay and wing vein quantification assay). […] Fly eye sizes were measured on multiple samples (n>10) from each genotype using the National Institutes of Health ImageJ software. […]"}, "DYRK1A [3]": {"system": "DYRK1A", "experiment": "Tau phosphorylation (T212) in the hippocampus of DYRK1A transgenic mouse after oral administration", "assay_type": "in vivo", "protocol": "This mouse model has 50% higher expression of DYRK1A compared with a normal mouse, and increased Tau phosphorylation at T212 in the hippocampus has been well documented ([Ryoo et al., 2007]). Indeed, this phenomenon was also confirmed in our experiment.\nFig. 7. […] (A) Hippocampuses from normal and DYRK1A-overexpressing C57BL/6 mice (n=5 for each) were harvested, and the phosphorylation of Tau was analyzed by western blotting with anti-phosphorylated-Tau (at residue T212; p-Tau) and anti-Tau antibodies. α-Tubulin was also analyzed as a loading control. (B) The phosphorylated and total Tau proteins in panel A were quantified, and the mean amount of each protein was calculated. […] Total cell lysates were prepared and subjected to western blotting with the indicated antibodies. α-Tubulin was also analyzed as a loading control. (D) The phosphorylated and total Tau proteins in panel C were quantified, and the mean amount of each protein across the animals was calculated. Relative ratios of phosphorylated Tau to total Tau were calculated by setting the value from DYRK1A mice that had been treated with DMSO as 100%. […]\nDYRK1A transgenic mice with three copies of the human DYRK1A gene were maintained as described previously ([Ahn et al., 2006]). […] The protein concentration was determined using the Bradford protein assay (Bio-Rad). […]"}, "[4]": {"parameters": "method as in Senhwa Biosciences (2014)", "conditions": "phase I clinical trials as cancer therapeutic; ref Senhwa Biosciences (2014); cited from earlier work"}, "DYRK1A [5]": {"target": "DYRK1A (Homo sapiens, UniProt Q13627)", "experiment": "DYRK1A-mediated Tau (T212) phosphorylation in transfected 293T cells, western blot", "assay_type": "cell-based", "parameters": "expressed in transfected cells; host or cells: 293T cells"}}, "data": [{"smiles": "O=C(O)c1ccc2c(c1)nc(Nc1cccc(Cl)c1)c1ccncc12", "note": "[CX-4945]", "values": [{"measurement": "NFATc1-dependent transcriptional activation (NRE-Luc) suppressed by DYRK1A overexpression", "setting": "[1]", "value": "reversed the effect of DYRK1A overexpression in a dose-dependent manner"}, {"measurement": "eye defects induced by overexpression of Tau alone or with mnb", "setting": "[2]", "value": "significantly mitigated"}, {"measurement": "phosphorylation of Tau (T212) in hippocampus", "setting": "DYRK1A [3]; DYRK1A-overexpressing C57BL/6 mice, 75 mg/kg oral, 30 min", "value": "remarkably decreased"}, {"measurement": "blood-brain barrier penetration", "setting": "DYRK1A [3]; inferred from hippocampal Tau phosphorylation after oral 75 mg/kg", "value": "efficiently penetrates the blood-brain barrier"}, {"measurement": "clinical safety", "setting": "[4]", "value": "safety has been already proven"}, {"measurement": "inhibition of Tau phosphorylation at 0.1 μM", "setting": "DYRK1A [5]; 0.1 μM", "value": "Moderate inhibition"}, {"measurement": "inhibition of Tau phosphorylation at 1 μM", "setting": "DYRK1A [5]; 1 μM", "value": "almost complete inhibition"}]}]}
